The results in this text go back to patent publication US12084472B2 (Ardelyx, Inc., priority 2015, dated 2024).

This assay deals with T1, human TGR5 (Homo sapiens, UniProt Q8TDU6).
T1 construct: expressed in transfected cells; host or cells: HEK293
T1 sequence (Q8TDU6 1-330): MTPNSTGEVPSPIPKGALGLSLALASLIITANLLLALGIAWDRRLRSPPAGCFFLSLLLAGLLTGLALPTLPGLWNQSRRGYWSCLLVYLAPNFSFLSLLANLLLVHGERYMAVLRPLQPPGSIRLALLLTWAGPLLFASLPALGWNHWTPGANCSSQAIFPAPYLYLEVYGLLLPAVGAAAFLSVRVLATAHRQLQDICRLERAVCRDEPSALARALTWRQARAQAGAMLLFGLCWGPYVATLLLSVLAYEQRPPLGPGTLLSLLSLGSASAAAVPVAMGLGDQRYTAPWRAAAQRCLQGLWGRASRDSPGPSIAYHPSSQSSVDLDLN
Briefly: Cell-based TGR5 assay (cAMP generation, HTRF). The settings on record: HEK293 cells stably transfected with human TGR5; cAMP by HTRF; 30 minutes at 37° C.; read-out: pEC50 Human TGR5 (converted). Summed up:
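Read-out was HTRF detection of cAMP, converted to concentration via a standard curve and fitted (3-parameter logistic) for pEC50 and maximal response. Agonist stimulation used HEK293 cells stably transfected with human TGR5, incubated 30 min at 37° C in IBMX-containing buffer at 0.05 nM to 10 μM compound.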
(In TR-FRET formats the signal depends on donor and acceptor labels being close together.)
As to `CC(CCCC(=O)NCCN1CCN(CC(=O)NC[C@H](O)[C@@H](O)[C@H](O)[C@H](O)CO)CC1)c1ccc(Cl)c(CNC2(c3cnccc3-c3ccccc3OC3CC3)CC2)c1` (stereo partly drawn) [Compound I-324, 5-{4-chloro-3-[({1-[4-(2-cyclopropoxyphenyl)pyridin-3-yl]cyclopropyl}amino)methyl]phenyl}-N-{2-[4-({[(2S,3R,4R,5R)-2,3,4,5,6-pentahydroxyhexyl]carbamoyl}methyl)piperazin-1-yl]ethyl}hexanamide], the EC50 is less than 100 nM.

As to `CC(C)N(CCCCc1cc(Cl)c(COC2(c3cnccc3-c3ccccc3OC3CC3)CC2)cc1Cl)C(=O)[C@@H](O)[C@@H](O)[C@H](O)[C@@H](O)CO` (stereo in doubt) [Compound I-210, (2S,3S,4R,5S)-N-{4-[2,5-dichloro-4-({1-[4-(2-cyclopropoxyphenyl)pyridin-3-yl]cyclopropoxy}methyl)phenyl]butyl}-2,3,4,5,6-pentahydroxy-N-(propan-2-yl)hexanamide], the EC50 was less than 100 nM.

`O=C(NCCCCSc1ccc(Cl)c(COC2(c3cnccc3-c3ccccc3OC3CC3)CC2)c1)NC[C@H](O)[C@@H](O)[C@H](O)[C@H](O)CO` [Compound I-621, 1-(4-{[4-chloro-3-({1-[4-(2-cyclopropoxyphenyl)pyridin-3-yl]cyclopropoxy}methyl)phenyl]sulfanyl}butyl)-3-[(2S,3R,4R,5R)-2,3,4,5,6-pentahydroxyhexyl]urea]: the EC50 is less than 100 nM.

On to `CC(CCCC(=O)N(C[C@@H](O)[C@H](O)[C@@H](O)[C@@H](O)CO)[C@H]1CC[C@@H](O)CC1)c1ccc(Cl)c(CNC2(c3cnccc3-c3ccccc3OC3CC3)CC2)c1` (stereo partly drawn) [Compound I-343, 5-{4-chloro-3-[({1-[4-(2-cyclopropoxyphenyl)pyridin-3-yl]cyclopropyl}amino)methyl]phenyl}-N-[(2R,3S,4S,5S)-2,3,4,5,6-pentahydroxyhexyl]-N-[(1s,4s)-4-hydroxycyclohexyl]hexanamide], for which the EC50 is less than 100 nM.

Consider `CC(=O)NCCCN(CCCCSc1ccc(Cl)c(COC2(c3cnccc3-c3ccccc3OC3CC3)CC2)c1)C(=O)[C@@H](O)[C@@H](O)[C@H](O)[C@@H](O)CO` [Compound I-566, (2S,3S,4R,5S)-N-(4-{[4-chloro-3-({1-[4-(2-cyclopropoxyphenyl)pyridin-3-yl]cyclopropoxy}methyl)phenyl]sulfanyl}butyl)-N-(3-acetamidopropyl)-2,3,4,5,6-pentahydroxyhexanamide], for which the EC50 was less than 100 nM.

Take `CN(C[C@H](O)[C@@H](O)[C@H](O)[C@H](O)CO)C(=O)CCCCc1cc(Cl)c(COC2(c3cnccc3-c3ccccc3OC3CC3)CC2)cc1Cl` [Compound I-136, 5-[2,5-dichloro-4-({1-[4-(2-cyclopropoxyphenyl)pyridin-3-yl]cyclopropoxy}methyl)phenyl]-N-methyl-N-[(2S,3R,4R,5R)-2,3,4,5,6-pentahydroxyhexyl]pentanamide]: the EC50 is less than 100 nM.

On to `CSc1ncc(C)c(CNC2(c3cnccc3-c3ccccc3OC3CC3)CC2)n1` [Compound I-496, 1-[4-(2-Cyclopropoxyphenyl)pyridin-3-yl]-N-[[5-methyl-2-(methylsulfanyl)pyrimidin-4-yl]methyl]cyclopropan-1-amine], for which the EC50 was less than 100 nM.

Turning to `CS(=O)(=O)NCCN(CCCSc1ccc(Cl)c(CNC2(c3cnccc3-c3ccccc3OC3CC3)CC2)c1)C(=O)[C@@H](O)[C@@H](O)[C@H](O)[C@@H](O)CO` [Compound I-585, (2S,3S,4R,5S)-N-[3-({4-chloro-3-[({1-[4-(2-cyclopropoxyphenyl)pyridin-3-yl]cyclopropyl}amino)methyl]phenyl}sulfanyl)propyl]-2,3,4,5,6-pentahydroxy-N-(2-methanesulfonamidoethyl) hexanamide], the EC50 was less than 100 nM.

On to `CN(C)C(=O)CN(C[C@H](O)[C@@H](O)[C@H](O)[C@H](O)CO)C(=O)CCCSc1ccc(Cl)c(COC2(c3cnccc3-c3ccccc3OC3CC3)CC2)c1` [Compound I-674, 4-{[4-chloro-3-({1-[4-(2-cyclopropoxyphenyl)pyridin-3-yl]cyclopropoxy}methyl)phenyl]sulfanyl}-N-[(dimethylcarbamoyl)methyl]-N-[(2S,3R,4R,5R)-2,3,4,5,6-pentahydroxyhexyl]butanamide], for which the EC50 was 126 to 1000 nM.

For the compound `CCN(CCCCN)S(=O)(=O)c1ccc(Cl)c(COC2(c3cnccc3-c3ccccc3OC3CC3)CC2)c1` [Compound I-463, N-(4-aminobutyl)-4-chloro-3-({1-[4-(2-cyclopropoxyphenyl)pyridin-3-yl]cyclopropoxy}methyl)-N-ethylbenzene-1-sulfonamide], the EC50 is less than 100 nM.

In the case of `O=C(CCCSc1ccc(Cl)c(COC2(c3cnccc3-c3ccccc3OC3CC3)CC2)c1)N(CCCCO)C[C@H](O)[C@@H](O)[C@H](O)[C@H](O)CO` [Compound I-692, 4-{[4-chloro-3-({1-[4-(2-cyclopropoxyphenyl)pyridin-3-yl]cyclopropoxy}methyl)phenyl]sulfanyl}-N-(4-hydroxybutyl)-N-[(2S,3R,4R,5R)-2,3,4,5,6-pentahydroxyhexyl]butanamide], the EC50 is 126 to 1000 nM.

In the case of `CN(CCCCc1cc(Cl)c(COC2(c3cnccc3-c3ccccc3OC3CC3)CC2)cc1Cl)C(=O)[C@@H](O)[C@@H](O)[C@H](O)[C@@H](O)CO` (stereo in doubt) [Compound I-184, (2S,3S,4R,5S)-N-{4-[2,5-dichloro-4-({1-[4-(2-cyclopropoxyphenyl)pyridin-3-yl]cyclopropoxy}methyl)phenyl]butyl}-2,3,4,5,6-pentahydroxy-N-methylhexanamide], the EC50 was less than 100 nM.

As to `O=C(NCCCN1CCN(S(=O)(=O)c2ccc(Cl)c(COC3(c4cnccc4-c4ccccc4OC4CC4)CC3)c2)CC1)NC[C@H](O)[C@@H](O)[C@H](O)[C@H](O)CO` [Compound I-423, 1-(3-{4-[4-chloro-3-({1-[4-(2-cyclopropoxyphenyl)pyridin-3-yl]cyclopropoxy}methyl)benzenesulfonyl]piperazin-1-yl}propyl)-3-[(2S,3R,4R,5R)-2,3,4,5,6-pentahydroxyhexyl]urea], the EC50 is 126 to 1000 nM.

On to `O=C([C@@H](O)[C@@H](O)[C@H](O)[C@@H](O)CO)N(CCCSc1ccc(Cl)c(COC2(c3cnccc3-c3ccccc3OC3CC3)CC2)c1)CCN1CCS(=O)(=O)CC1` [Compound I-521, (2S,3S,4R,5S)-N-(3-{[4-chloro-3-({1-[4-(2-cyclopropoxyphenyl)pyridin-3-yl]cyclopropoxy}methyl)phenyl]sulfanyl}propyl)-N-[2-(1,1-dioxo-1λ^6,4-thiomorpholin-4-yl)ethyl]-2,3,4,5,6-pentahydroxyhexanamide], for which the EC50 was 126 to 1000 nM.

With `O=S(=O)(c1ccc(Cl)c(COC2(c3cnccc3-c3ccccc3OC3CC3)CC2)c1)N1CCCCC1` [Compound I-396, 3-(1-{[2-chloro-5-(piperidine-1-sulfonyl)phenyl]methoxy}cyclopropyl)-4-(2-cyclopropoxyphenyl)pyridine], the EC50 was less than 100 nM.

Regarding `O=C([C@@H](O)[C@@H](O)[C@H](O)[C@@H](O)CO)N(CCCSc1ccc(Cl)c(CNC2(c3cnccc3-c3ccccc3OC3CC3)CC2)c1)CC1CCOCC1` [Compound I-553, (2S,3S,4R,5S)-N-[3-({4-chloro-3-[({1-[4-(2-cyclopropoxyphenyl)pyridin-3-yl]cyclopropyl}amino)methyl]phenyl}sulfanyl)propyl]-2,3,4,5,6-pentahydroxy-N-(oxan-4-ylmethyl)hexanamide], the EC50 is 126 to 1000 nM.

For the compound `CN(CC(=O)O)CC(=O)N(CCCCc1cc(Cl)c(COC2(c3cnccc3-c3ccccc3OC3CC3)CC2)cc1Cl)C[C@H](O)[C@@H](O)[C@H](O)[C@H](O)CO` [Compound I-195, 2-{[({4-[2,5-dichloro-4-({1-[4-(2-cyclopropoxyphenyl)pyridin-3-yl]cyclopropoxy}methyl)phenyl]butyl}[(2S,3R,4R,5R)-2,3,4,5,6-pentahydroxyhexyl]carbamoyl)methyl](methyl)amino}acetic acid], the EC50 was 126 to 1000 nM.

With `Clc1cccc(CNC2(c3cnccc3-c3ccccc3OC3CC3)CC2)c1Cl` [Compound I-26, 1-[4-(2-cyclopropoxyphenyl)pyridin-3-yl]-N-[(2,3-dichlorophenyl)methyl]cyclopropan-1-amine], the EC50 was 126 to 1000 nM.

`CC(=O)NCCCCN(CCCSc1ccc(Cl)c(CNC2(c3cnccc3-c3ccccc3OC3CC3)CC2)c1)C(=O)[C@@H](O)[C@@H](O)[C@H](O)[C@@H](O)CO` [Compound I-602, (2S,3S,4R,5S)-N-[3-({4-chloro-3-[({1-[4-(2-cyclopropoxyphenyl)pyridin-3-yl]cyclopropyl}amino)methyl]phenyl}sulfanyl)propyl]-N-(4-acetamidobutyl)-2,3,4,5,6-pentahydroxyhexanamide]: the EC50 was 126 to 1000 nM.

With `O=C(CCCCc1cc(Cl)c(COC2(c3cnccc3-c3ccccc3OC3CC3)CC2)cc1Cl)NCC1O[C@H](CO)[C@@H](O)[C@H](O)[C@H]1O` (stereo partly drawn) [Compound I-104, 5-[2,5-dichloro-4-({1-[4-(2-cyclopropoxyphenyl)pyridin-3-yl]cyclopropoxy}methyl)phenyl]-N-{[(3R,4R,5S,6R)-3,4,5-trihydroxy-6-(hydroxymethyl)oxan-2-yl]methyl}pentanamide], the EC50 is less than 100 nM.

On to `Cc1ccc(C(C)CCCCNC(=O)NC[C@H](O)[C@@H](O)[C@H](O)[C@H](O)CO)cc1CNC1(c2cnccc2-c2ccccc2OC2CC2)CC1` (stereo partly drawn) [Compound I-272, 1-(5-{3-[({1-[4-(2-cyclopropoxyphenyl)pyridin-3-yl]cyclopropyl}amino)methyl]-4-methylphenyl}hexyl)-3-[(2S,3R,4R,5R)-2,3,4,5,6-pentahydroxyhexyl]urea], for which the EC50 was less than 100 nM.
